Earlier results as cited in patent US20050064031A1, “Combination contraceptive, kits that contain the latter, and a method that uses the latter” (priority 1995, published 2005).

Test system: breast tumors
Conditions: rats treated before the administration of a carcinogen

## CN(C)c1ccc([C@H]2C[C@]3(C)[C@@H](CC[C@]3(O)CCCO)[C@@H]3CCC4=CC(=O)CCC4=C32)cc1 [onapristone]
  development of breast tumors: can be inhibited
